We go through two compounds from patent US20150342899A1 (NOVEN PHARMACEUTICALS, INC., priority 2012, published 2015).

This series in a line: in vitro flux study with human cadaver skin using a Franz cell apparatus. Format: in vitro ADME. On the procedure:
An in vitro flux study was conducted with human cadaver skin using a Franz cell apparatus to determine the flux of each drug from the matrix over a 24-hour period.

For `CC(N)Cc1ccccc1` (stereo not drawn) [amphetamine, alpha-methylphenethylamine], the “flux of drug from the matrix” value (transdermal system from polymer matrix of Example 1, about 1.05 mg/cm^2 amphetamine and about 0.28 mg/cm^2 clonidine, 24-hour period, FIG. 1, one sample) is “sufficient to achieve a therapeutic effect”.
For `Clc1cccc(Cl)c1N=C1NCCN1` [clonidine], the “pharmacokinetic (delivery) profile” value is “delivered over an extended period of time”.
